Converted amounts (≈) assume the structure as drawn.
Assays:
Nakaseomyces glabratus = assay: Antifungal activity against Candida glabrata ATCC MYA-2950 assessed as reduction in fungal growth incubated for 24 hrs by CLSI based broth microdilution method; assay type: functional
[1] = Selectivity index, ratio of CC50 for African green monkey Vero cells to MIC for antifungal activity against Aspergillus fumigatus NR 35303; assay type: toxicity; details: read-out: Selectivity Index
[Candida] auris [2] = Antifungal activity against fluconazole-resistant Candida auris 384 assessed as reduction in fungal growth incubated for 24 hrs by CLSI based broth microdilution method; assay type: functional; details: Candidozyma auris
[3] = Selectivity index, ratio of maximum non-toxic concentration for human Caco-2 cells to MIC for antifungal activity against Candida krusei ATCC 34135; assay type: toxicity; details: read-out: Selectivity Index
Candida parapsilosis [4] = assay: Antifungal activity against Candida parapsilosis CAB 502638 assessed as reduction in fungal growth incubated for 24 hrs by CLSI based broth microdilution method; assay type: functional; details: Lodderomyces parapsilosis
Candida albicans [5] = assay: Antifungal activity against Candida albicans SS5314 assessed as reduction in fungal growth by CLSI based broth microdilution method; assay type: functional
[6] = tested on: Cryptococcus gattii species complex; assay: Antifungal activity against Cryptococcus gattii NR43210 assessed as reduction in fungal growth incubated for 48 hrs by CLSI based broth microdilution method; assay type: functional, Cryptococcus bacillisporus
[7] = Selectivity index, ratio of maximum non-toxic concentration for human Caco-2 cells to MIC for antifungal activity against Aspergillus fumigatus NR 35304; assay type: toxicity; details: read-out: Selectivity Index
Candida albicans [8] = assay: Antifungal activity against fluconazole-resistant Candida albicans NR29448 assessed as reduction in fungal growth incubated for 24 hrs by CLSI based broth microdilution method; assay type: functional
Staphylococcus aureus = assay: Antibacterial activity against methicillin resistant Staphylococcus aureus subsp. aureus USA300 assessed as reduction in bacterial growth by CLSI based broth microdilution method; assay type: functional
Pichia kudriavzevii = assay: Antifungal activity against Candida krusei CAB 396420 assessed as reduction in fungal growth incubated for 24 hrs by CLSI based broth microdilution method; assay type: functional
[9] = Selectivity index, ratio of CC50 for African green monkey Vero cells to MIC for antifungal activity against Candida parapsilosis ATCC 22019; assay type: toxicity; details: read-out: Selectivity Index
[10] = Selectivity index, ratio of CC50 for African green monkey Vero cells to MIC for antifungal activity against fluconazole-resistant Candida albicans NR29448; assay type: toxicity; details: read-out: Selectivity Index
[11] = Selectivity index, ratio of maximum non-toxic concentration for human Caco-2 cells to MIC for antifungal activity against fluconazole-resistant Candida auris 384; assay type: toxicity; details: read-out: Selectivity Index
Cryptococcus neoformans = assay: Antifungal activity against Cryptococcus neoformans NR48770 assessed as reduction in fungal growth incubated for 48 hrs by CLSI based broth microdilution method; assay type: functional
[12] = Selectivity index, ratio of maximum non-toxic concentration for human Caco-2 cells to MIC for antifungal activity against Cryptococcus gattii NR43209; assay type: toxicity; details: read-out: Selectivity Index
Clostridioides difficile = assay: Antibacterial activity against Clostridium difficile BAA1870 assessed as reduction in bacterial growth by CLSI based broth microdilution method; assay type: functional
[13] = Selectivity index, ratio of CC50 for African green monkey Vero cells to MIC for antifungal activity against Candida krusei ATCC 34135; assay type: toxicity; details: read-out: Selectivity Index
[Candida] auris [14] = Antifungal activity against fluconazole-resistant Candida auris 383 assessed as reduction in fungal growth incubated for 24 hrs by CLSI based broth microdilution method; assay type: functional; details: Candidozyma auris
[15] = Selectivity index, ratio of maximum non-toxic concentration for human Caco-2 cells to MIC for antifungal activity against fluconazole-resistant Candida auris 381; assay type: toxicity; details: read-out: Selectivity Index
Lacticaseibacillus casei = assay: Antibacterial activity against Lactobacillus casei HM-334 assessed as reduction in bacterial growth by CLSI based assay; assay type: organism-based
[16] = Selectivity index, ratio of maximum non-toxic concentration for human Caco-2 cells to MIC for antifungal activity against Cryptococcus neoformans NR41298; assay type: toxicity; details: read-out: Selectivity Index
[17] = Selectivity index, ratio of CC50 for African green monkey Vero cells to MIC for antifungal activity against Candida krusei CAB 396420; assay type: toxicity; details: read-out: Selectivity Index
Candida albicans [18] = assay: Antibiofilm activity against 24 hrs preformed biofilm of Candida albicans NR29448 assessed as disruption of mature biofilm at 64 ug/ml incubated for 24 hrs by crystal violet staining based spectrophotometry relative to control; assay type: functional; details: dose 64 µg/ml
[19] = Selectivity index, ratio of maximum non-toxic concentration for human Caco-2 cells to MIC for antifungal activity against Candida krusei CAB 396420; assay type: toxicity; details: read-out: Selectivity Index
[20] = Selectivity index, ratio of CC50 for African green monkey Vero cells to MIC for antifungal activity against fluconazole-resistant Candida auris 383; assay type: toxicity; details: read-out: Selectivity Index
Candida albicans [21] = assay: Antifungal activity against Candida albicans SS5314 assessed as reduction in fungal growth incubated for 24 hrs by CLSI based broth microdilution method; assay type: functional
Candida parapsilosis [22] = assay: Antifungal activity against Candida parapsilosis ATCC 22019 assessed as reduction in fungal growth incubated for 24 hrs by CLSI based broth microdilution method; assay type: functional; details: Lodderomyces parapsilosis
[23] = Selectivity index, ratio of maximum non-toxic concentration for human Caco-2 cells to MIC for antifungal activity against fluconazole-resistant Candida albicans NR29448; assay type: toxicity; details: read-out: Selectivity Index
[24] = Selectivity index, ratio of maximum non-toxic concentration for human Caco-2 cells to MIC for antifungal activity against fluconazole-resistant Candida auris 383; assay type: toxicity; details: read-out: Selectivity Index
Candida albicans [25] = assay: Antibiofilm activity against Candida albicans NR29448 assessed as reduction in biofilm formation at 0.5XMIC incubated for 24 hrs by crystal violet staining based assay relative to control; assay type: functional
Escherichia coli [26] = assay: Antibacterial activity against Escherichia coli JW55031 harboring tolC mutation assessed as reduction in bacterial growth by CLSI based broth microdilution method; assay type: functional
[27] = Cytotoxicity against African green monkey Vero cells assessed as reduction in cell viability incubated for 2 hrs by MTS assay; assay type: cell-based; details: chlorocebus sabaeus
[28] = Selectivity index, ratio of maximum non-toxic concentration for human Caco-2 cells to MIC for antifungal activity against Candida glabrata ATCC MYA-2950; assay type: toxicity; details: read-out: Selectivity Index
[29] = Selectivity index, ratio of CC50 for African green monkey Vero cells to MIC for antifungal activity against fluconazole-resistant Candida auris 381; assay type: toxicity; details: read-out: Selectivity Index
Aspergillus fumigatus = assay: Antifungal activity against Aspergillus fumigatus NR 35303 assessed as reduction in fungal growth incubated for 24 hrs by CLSI based broth microdilution method; assay type: functional
Escherichia coli [30] = assay: Antibacterial activity against Escherichia coli BW25113 assessed as reduction in bacterial growth by CLSI based broth microdilution method; assay type: functional
[31] = Selectivity index, ratio of CC50 for African green monkey Vero cells to MIC for antifungal activity against Cryptococcus neoformans NR41300; assay type: toxicity; details: read-out: Selectivity Index
[32] = Selectivity index, ratio of maximum non-toxic concentration for human Caco-2 cells to MIC for antifungal activity against Cryptococcus neoformans NR48770; assay type: toxicity; details: read-out: Selectivity Index
[33] = Selectivity index, ratio of maximum non-toxic concentration for human Caco-2 cells to MIC for antifungal activity against Candida glabrata ATCC 66032; assay type: toxicity; details: read-out: Selectivity Index
[34] = Selectivity index, ratio of maximum non-toxic concentration for human Caco-2 cells to MIC for antifungal activity against Cryptococcus gattii NR43210; assay type: toxicity; details: read-out: Selectivity Index
Candida albicans [35] = assay: Antifungal activity against Candida albicans ATCC 10231 assessed as reduction in fungal growth incubated for 24 hrs by CLSI based broth microdilution method; assay type: functional
[36] = Selectivity index, ratio of CC50 for African green monkey Vero cells to MIC for antifungal activity against Candida albicans ATCC 10231; assay type: toxicity; details: read-out: Selectivity Index

Cc1nc(-c2ccc(C(C)(C)C)cc2)sc1-c1nnc(N[C@@H]2CCCC[C@@H]2N)o1 (relative stereo)
MIC (Nakaseomyces glabratus): 0.125 µg/mL (≈ 0.304 µM) | selectivity ratio [1]: ≤ 64 | MIC ([Candida] auris [2]): 4 µg/mL (≈ 9.72 µM) | selectivity ratio [3]: ≤ 64 | MIC (Candida parapsilosis [4]): 1 µg/mL (≈ 2.43 µM) | MIC (Candida albicans [5]): 1 µg/mL (≈ 2.43 µM) | MIC [6]: 1 µg/mL (≈ 2.43 µM) | selectivity ratio [7]: ≤ 64 | MIC (Candida albicans [8]): 8 µg/mL (≈ 19.4 µM) | MIC (Staphylococcus aureus): > 64 µg/mL | MIC (Pichia kudriavzevii): 1 µg/mL (≈ 2.43 µM) | selectivity ratio [9]: ≤ 64 | selectivity ratio [10]: ≤ 64 | selectivity ratio [11]: ≤ 64 | MIC (Cryptococcus neoformans): 1 µg/mL (≈ 2.43 µM) | selectivity ratio [12]: ≤ 64 | MIC (Clostridioides difficile): 64 µg/mL (≈ 156 µM) | selectivity ratio [13]: ≤ 64 | MIC ([Candida] auris [14]): 2 µg/mL (≈ 4.86 µM) | selectivity ratio [15]: ≤ 64 | MIC (Lacticaseibacillus casei): > 128 µg/mL | selectivity ratio [16]: ≤ 64 | selectivity ratio [17]: ≤ 64 | Activity (Candida albicans [18]): 16% | selectivity ratio [19]: ≤ 64 | selectivity ratio [20]: ≤ 64 | MIC (Candida albicans [21]): 2 µg/mL (≈ 4.86 µM) | MIC (Candida parapsilosis [22]): 1 µg/mL (≈ 2.43 µM) | selectivity ratio [23]: ≤ 64 | selectivity ratio [24]: ≤ 64 | inhibition (INH) (Candida albicans [25]): 40% | MIC (Escherichia coli [26]): > 64 µg/mL | CC50 at 2 h [27]: > 64 µg/mL | selectivity ratio [28]: ≤ 64 | selectivity ratio [29]: ≤ 64 | MIC (Aspergillus fumigatus): 8 µg/mL (≈ 19.4 µM) | MIC (Escherichia coli [30]): > 64 µg/mL | selectivity ratio [31]: ≤ 64 | selectivity ratio [32]: ≤ 64 | selectivity ratio [33]: ≤ 64 | selectivity ratio [34]: ≤ 64 | MIC (Candida albicans [35]): 8 µg/mL (≈ 19.4 µM) | selectivity ratio [36]: ≤ 64
